Results reported in PubChem BioAssay AID179 (DTP/NCI, 2004).
Several values for one entry are separate records, joined by “and”; a condition that tells them apart may be missing. Identical values can stand only once. Activity calls are given as the source filed them.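 Rule for the calls: active = compounds giving half or more protection of infected cells from virus-caused growth loss, again on retest; inactive = the rest.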

System: CEM cells HIV-1 protection, formazan growth assay
Experiment: NCI AIDS Antiviral Assay
Conditions: for IC50: measured here: growth of uninfected CEM cells
Outline: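 Steps: treat uninfected and HIV-1-infected human CEM cells at five drug levels; quantify growth by soluble formazan; retest any compound reaching 50% protection; classify actives from the retest.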

SMILES	EC50 [µM]	IC50	outcome
O=C(/C=C/c1ccc(O)c(O)c1)OCC(OC(=O)/C=C/c1ccc(O)c(O)c1)C(=O)O (centres undefined)	> 200	28.2 µM	–
CCOC1(NC(=O)N(C)C)C2CCCCC21 (centres undefined)	> 200	> 200 µM	–
CC(=O)c1cccc(C(C)=O)c1N=Cc1ccccc1	–	–	inactive
Cc1cc(NC(=O)C(=O)Cc2nc3ccccc3s2)ccc1Cl	> 20.9	> 20.9 µM	–
CCOC(=O)C1(C)CCc2sc(N)c(C#N)c21 (centres undefined)	83.2	158 µM	–
COc1cc2c(c(OC)c1OC)-c1cc3c(cc1C(=O)CC(C(=O)O)(C(=O)O)C2)OCO3	> 562	> 562 µM	–
COC(=O)CP(=O)(OC)OCC(F)(F)F (centres undefined)	> 1000	832 µM	–
COc1cc(CO)c(CC(=O)NCCCc2ccccc2)cc1OC	> 200	18.2 µM	–
COC(=O)c1c(C)c2c(c(C)c1C(=O)OC)-c1c(C)ccc3ccc(C)c-2c13	> 100	3.72 µM	–
COCOC1CCCC[C@@]1(OCCOCCO[C@@]1(c2ccccc2)CCCC[C@H]1OCOC)c1ccccc1 (some centres undefined)	> 5.01	> 5.01 µM	–
N=N/C(=C\c1c(O)[nH]c2ccccc12)c1ccccc1	> 200	3.31 µM	–
CC(CC(=O)O)CC(=O)OC[C@]12CC[C@@H](C(C)C)[C@@H]1[C@H]1CC[C@@H]3[C@@]4(C)CC[C@H](OC(=O)CC(C)CC(=O)O)C(C)(C)[C@@H]4CC[C@@]3(C)[C@]1(C)CC2 (some centres undefined)	> 200	16.6 µM	–
COc1cc(/C=C2/N=C(c3ccccc3)N(C3=NNC4(C(=O)N3)c3ccccc3-c3ccccc34)NC2=O)ccc1O	> 100	75.9 µM	–
CC1=C(C(=S)Nc2ccc(Cl)c(C(=O)OC(C)C)c2)SCCO1	0.024	64.6 µM	–
CCOC(=O)C1=C(O)c2ccccc2C(=O)C1=O	> 525	316 µM	–
Cc1cc2c(cc1C)NC(=O)C(C)CN2 (centres undefined)	> 200	> 200 µM	–
OCC1=C[C@@H](O)[C@@H]2C=CO[C@@H](OC3OC(CO)C(O)C(O)C3O)[C@H]12 (some centres undefined)	> 724	> 724 µM	–
CN(C)C(=O)c1nnsc1NN=O	> 200	> 200 µM	–
C[CH2][Sn]([CH2]C)([O]C(=O)c1ccccc1F)[O][Sn]([CH2]C)([CH2]C)[O]C(=O)c1ccccc1F	> 39.8	25.1 µM	–
CC(C)(C)OC(=O)C(C#N)C(=O)c1ccc(C(=O)O)[nH]1 (centres undefined)	> 200	23.4 µM	–
CN(C)CC1C2C=CC(C3CC23)C1CN(C)C (centres undefined)	–	–	inactive
CC(=O)NNc1nc(C)c(C(=O)/C=C/c2ccc(NC(C)=O)cc2)s1	> 28.2	> 28.2 µM	–

SMILES	EC50 [µM]	IC50	outcome
c1cc(C[S+]2CCCC2)oc1C[S+]1CCCC1	> 200	102 µM	–
COC(=O)C1CC(C=[N+](C)C)=C(SC)N1C(=O)OCc1ccccc1 (centres undefined)	> 200	191 µM	–
COc1ccc(N2C(=O)c3cc([N+](=O)[O-])cnc3S2(=O)=O)cc1	> 200	28.2 µM	–
CC(=O)OC[C@]1(C)CCCC2(C)C1CCC1C=C(C)[C@H]3CCC12C3 (some centres undefined)	> 107	> 107 µM	–
Cc1cc(NCCCCCCNc2cc(C)nc3ccc(Cl)cc23)c2cc(Cl)ccc2n1	> 6.92	> 6.92 µM	–
CN(C)c1ccc(N=C2C=CC(=O)c3ccccc32)cc1	> 20	1.23 µM	–
CCOC(=O)c1cn2c(ccc3sc4ccccc4c(=O)c32)n1	> 200	> 200 µM	–
CCOC(=O)C1(C(=O)OCC)OC(C)=NC1(C(=O)OC)C(=O)OC	> 200	> 200 µM	–
Cc1cccc2c3ccc4c(c3n(C)c12)C(=O)C=CC4=O	> 49	24.5 µM	–
O=c1[nH]nc(Cc2ccccc2)n1/N=C\CC/C=N\n1c(Cc2ccccc2)n[nH]c1=O	> 200	37.2 µM	–
CSc1c(C#N)c(N)n(-c2ccc(Cl)cc2)c(=O)c1C#N	67.6	72.4 µM	–
O=[N+]([O-])c1ccc(/C=N/Nc2nnc3c4ccccc4c4ncccc4c3n2)o1	> 100	> 100 µM	–
CCCCC(N)CSSCC(N)CCCC (centres undefined)	> 741	21.4 µM	–
CS(=O)(=O)N(CCC#N)c1ccc(C=O)cc1	> 102	> 102 µM	–
N#CC(=C1CCN(CCCC(=O)c2ccc(F)cc2)CC1)c1ccccc1	> 200	> 200 µM	–
CCNC(=O)C1CCCN1C(=O)C(CCCN=C(N)N)NC(=O)C(CC(C)C)NC(=O)C(Cc1c[nH]c2ccccc12)NC(=O)C(Cc1ccc(O)cc1)NC(=O)C(CO)NC(=O)C(Cc1c[nH]c2ccccc12)NC(=O)C(Cc1cnc[nH]1)NC(=O)C1CCC(=O)N1 (centres undefined)	> 178	> 178 µM	–
CCCS(=O)(=O)/C(=C(\c1ccc(Br)cc1)S(=O)(=O)CCC)c1ccc(Br)cc1	> 2.63	> 2.63 µM	–
O=C(OCCN1CCCC1)c1cc2ccccc2[nH]1	> 200	> 100 µM	–
OCC1CCCCN1Cc1nc2ccc(Cl)cc2[nH]1 (centres undefined)	> 200	195 µM	–
O=C(CCCn1cnc([N+](=O)[O-])n1)NCCCn1ccnc1[N+](=O)[O-]	> 200	> 200 µM	–
CC(=O)N1C(C(=O)NN2CCOCC2)CSC1c1ccccc1 (centres undefined)	> 200	> 200 µM	–
COC1/C=C\OC2(C)Oc3c(C)c(O)c4c(O)c(c(/C=N\N(C)C)c(O)c4c3C2=O)NC(=O)/C(C)=C\C=C/C(C)C(O)C(C)C(O)C(C)C(OC(C)=O)C1C (centres undefined)	> 200	12.9 µM	–

SMILES	EC50 [µM]	IC50	outcome
NC(=O)CN1CC(C2=C(O)CN(CC(N)=O)C2=O)=CC1=O	–	–	inactive
CCOC(=O)C(=O)NNc1cc(=O)n(C)c(=O)n1C	> 200	> 200 µM	–
Cc1cccc(CC(Cc2ccc(C)cc2C(=O)O)C(=O)O)c1 (centres undefined)	> 200	> 200 µM	–
CCCCCCCCCCCC(=O)OC[C@@H](C[As](=O)(O)O)OC(=O)CCCCCCCCCCC	> 200	3.89 µM	–
Clc1cc2nn(C3CCCCO3)nc2cc1Cl (centres undefined)	> 200	> 200 µM	–
COc1cc(C2c3cc4c(cc3OC(NNc3ccccc3)C2C)OCO4)cc(OC)c1O (centres undefined)	–	–	inactive
c1ccc(N=C(Nc2ccccc2)N2CCCC2)cc1	> 200	174 µM	–
COc1cc(C2SCC(=O)N2c2ccc(-c3ccc(-n4c(-c5ccccc5)nc5ccccc5c4=O)cc3)cc2)cc(OC)c1OC (centres undefined)	> 200	14.8 µM	–
COc1cnc(NS(=O)(=O)c2ccc(N)cc2)nc1	> 200	> 200 µM	–
COc1ccc(-c2ccccc2)c2[nH]c3c(c12)CCNC3=O	–	–	inactive
O=C(CN1CCC(O)(c2ccc(F)cc2)CC1)N1CCN(C/C=C/c2ccccc2)CC1	> 200	28.8 µM	–
COc1ccc2[nH]cc([C@@H]3C4CCC(C4)[C@H]3NCc3cccc(CN[C@H]4C5CCC(C5)[C@@H]4c4c[nH]c5ccc(OC)cc45)c3)c2c1	> 2	0.324 µM and 0.617 µM	–
CN(C)C(=S)N/N=C(\C(=N/NC(=S)N(C)C)c1ccccn1)c1ccccn1	> 20	1.1 µM	–
CCN1C(c2ccccc2)=CC(c2ccccc2)(C(Cl)(Cl)Cl)C=C1c1ccccc1	> 200	1.78 µM	–
C=C(C)CNC(=S)N(N)c1ccc2ccccc2c1	> 200	58.9 µM	–
N#C/C(C(=O)Nc1ccc(Cl)cc1)=C(/N)N1CCCC1	> 200	> 200 µM	–
Clc1c(Cl)c(Cl)c2c(nnn2C2CCCO2)c1Cl (centres undefined)	> 200	33.1 µM	–
CCOC(=O)C1=Nc2ccccc2N=C(C2C(=O)C=C(C)OC2=O)C1 (centres undefined)	> 200	> 200 µM	–
CSC(C)CS(=O)(=O)O (centres undefined)	> 200	> 200 µM	–
O=C(O)CN(CCN(CC(=O)O)CC(=O)O)CC(=O)O.[Cu+2].[Na+]	> 200	8.91 µM	–
COC(=O)C1=C(C(=O)OC)SC(=Cc2ccccc2C=C2SC(C(=O)OC)=C(C(=O)OC)S2)S1	–	–	inactive
CCCCCc1cc2cc(O)cc(Oc3c(O)cc(O)c(C(=O)O)c3CCCCC)c2c(=O)o1	> 200	34.7 µM	–

SMILES	EC50 [µM]	IC50	outcome
Nc1nc(OCc2ccccc2)c2[nH]cnc2n1	> 200	32.4 µM	–
CC(=O)c1cccc(NC(=O)/C(=N\NC(C)(C)C)c2c(O)c3ccccc3oc2=O)c1	> 589	257 µM	–
NC(N)=NCCCC(NCc1c2ccccc2nc2ccccc12)C(=O)O (centres undefined)	–	–	inactive
CC1(C)c2ccccc2C(C)(C)C(C(=O)Nc2ccccc2)C1C(=O)O (centres undefined)	–	–	inactive
Cc1sc(N)c(S(=O)(=O)c2ccccc2)c1C	166	195 µM	–
C[C@@H]1CC/C=C(/[Si](C)(C)C)C[C@H](C)O1	> 1170	> 1170 µM	–
CN(C(=O)CCC(=O)O)c1ccccc1C(=O)O	> 200	> 200 µM	–
COc1cc(/C=C/C2=C(C#N)C(=O)OC2(C)C)ccc1O	> 126	> 126 µM	–
O=C(Nn1c(-c2ccccc2)nc2ccccc2c1=O)c1ccccn1	> 200	123 µM	–
C[C@]12OC[C@H](c3ccccc3)N1C(=O)C1[C@H]2CC12SCCS2 (some centres undefined)	> 200	178 µM	–
N#Cc1cc(C#N)c(N)nc1N	> 200	> 200 µM	–
CC(C)(C)c1ccc(O)c(C(c2ccc([N+](=O)[O-])cc2)c2cc(C(C)(C)C)ccc2O)c1	> 200	3.55 µM	–
CCCc1cc2c(=O)c(C(=O)OC)c[nH]c2cc1N(CC)CC	> 200	> 200 µM	–
COC(=O)c1cc(C(=CC(=O)O)c2cc(Cl)c(OC)c(C(=O)OC)c2)cc(Cl)c1OC	> 200	95.5 µM	–
O=c1onc2n1-c1cc(Cl)ccc1C(=S)N1CSCC21 (centres undefined)	> 200	105 µM	–
O=C(Nc1cccc(C(F)(F)F)c1)C(Cl)=C(Cl)Cl	> 200	2.34 µM	–
Cc1cc(C[C@H]2O[C@@H]3OC(C)(C)O[C@@H]3[C@H]3OC(C)(C)O[C@H]32)c2ccccc2n1	> 200	64.6 µM	–
CCOC(=O)NC(NC(=O)OCC)C(NC(=O)OCC)NC(=O)OCC	> 200	> 200 µM	–
O=C(O)C1OC(Oc2ccc3oc4ccccc4c(=O)c3c2)C(O)C(O)C1O (centres undefined)	> 174	145 µM	–
CCOC(=O)Nc1cc(C)c(NC(=O)CN(CC)CC)c(C)c1	> 200	> 200 µM	–
